# System: all types and subtypes of influenza tested
# Type: biochemical, influenza virus
# Conditions: peramivir only 2019/20
smiles,measurement,value
"CCC(CC)[C@H](NC(C)=O)[C@@H]1[C@H](O)[C@@H](C(=O)O)C[C@H]1N=C(N)N [Peramivir, peramivir]",activity of NAI in the neuraminidase inhibition assay,most potent inhibitor

# Source: PMC9939793 (Infection and Drug Resistance, 2023)
